The first assay addresses T1, Glutaminase kidney isoform, mitochondrial (Homo sapiens, UniProt O94925).
T1 sequence (O94925 whole entry): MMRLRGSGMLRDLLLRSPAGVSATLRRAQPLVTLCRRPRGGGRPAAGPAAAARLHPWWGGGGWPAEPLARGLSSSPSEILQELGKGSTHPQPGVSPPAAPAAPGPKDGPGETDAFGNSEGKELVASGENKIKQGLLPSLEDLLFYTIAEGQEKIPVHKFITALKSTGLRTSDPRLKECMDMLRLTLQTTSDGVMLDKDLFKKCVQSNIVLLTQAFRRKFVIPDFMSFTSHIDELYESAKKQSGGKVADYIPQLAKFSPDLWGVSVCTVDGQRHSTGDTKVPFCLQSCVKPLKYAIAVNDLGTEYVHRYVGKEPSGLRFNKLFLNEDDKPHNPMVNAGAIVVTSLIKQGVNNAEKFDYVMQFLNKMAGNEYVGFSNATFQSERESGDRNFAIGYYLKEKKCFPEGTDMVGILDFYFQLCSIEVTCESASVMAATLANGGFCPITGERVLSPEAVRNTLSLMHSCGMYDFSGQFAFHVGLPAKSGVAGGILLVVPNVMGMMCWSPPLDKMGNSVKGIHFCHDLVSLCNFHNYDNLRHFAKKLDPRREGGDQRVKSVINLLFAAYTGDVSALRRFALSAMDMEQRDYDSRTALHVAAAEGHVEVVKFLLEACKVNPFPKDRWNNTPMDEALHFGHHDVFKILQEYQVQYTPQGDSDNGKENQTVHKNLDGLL
Put plainly: Inhibition of recombinant GAC (unknown origin) after 15 mins in presence of NADPH by glutamate oxidase coupled spectrophotometric analysis.
In the case of `O=C(Cc1cccc(OC(F)(F)F)c1)Nc1ccc(CCCCc2nnc(NC(=O)Cc3ccccn3)s2)cn1`, the IC50 fell in the range of 50 to 100 nM.

Another assay addresses T2, Cystine/glutamate transporter (Homo sapiens, UniProt Q9UPY5).
T2 sequence (Q9UPY5 whole entry): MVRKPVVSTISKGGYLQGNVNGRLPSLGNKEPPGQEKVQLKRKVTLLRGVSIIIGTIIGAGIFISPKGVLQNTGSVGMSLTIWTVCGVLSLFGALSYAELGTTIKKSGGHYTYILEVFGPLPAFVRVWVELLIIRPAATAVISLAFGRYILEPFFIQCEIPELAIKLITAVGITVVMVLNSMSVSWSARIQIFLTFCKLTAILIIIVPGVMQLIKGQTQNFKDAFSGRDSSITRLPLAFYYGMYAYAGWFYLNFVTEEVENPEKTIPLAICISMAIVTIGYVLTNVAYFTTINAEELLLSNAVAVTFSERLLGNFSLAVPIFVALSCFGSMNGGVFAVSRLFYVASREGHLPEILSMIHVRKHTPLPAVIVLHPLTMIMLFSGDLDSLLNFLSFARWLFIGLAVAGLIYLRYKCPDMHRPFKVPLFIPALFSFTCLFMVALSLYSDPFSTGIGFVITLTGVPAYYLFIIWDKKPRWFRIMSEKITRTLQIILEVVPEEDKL
The assay can be described thus: Inhibition of xCT-mediated cystein/glutamate transporter (unknown origin) assessed as reduction in L-[14C]cyctein uptake.
With `O=C(O)c1cc(/N=N/c2ccc(S(=O)(=O)Nc3ccccn3)cc2)ccc1O` [SULFASALAZINE], the IC50 lay within 160 to 30000 nM. Still for that read-out and setting: next, `O=C(O)c1cc(C#Cc2ccc(S(=O)(=O)Nc3ccccn3)cc2)ccc1O`: 70000 nM; `O=C(O)c1cc(/C=C/c2ccc(S(=O)(=O)Nc3ccccn3)cc2)ccc1O`: 30000 nM.

In the next assay the target is T1, Glutaminase kidney isoform, mitochondrial. Put plainly: Inhibition of GAC (unknown origin).
Regarding `O=C(Cc1ccccc1)Nc1nnc([C@H]2CC[C@H](c3nnc(NC(=O)Cc4ccccc4)s3)C2)s1` (racemic), the IC50 was in the range of 100 to 500 nM.

Take `O=C(Cc1ccccc1)Nc1ccn(CCCCc2cc3cc(Cc4ccccc4)[nH]c3nn2)c(=O)c1`: the IC50 was < 100 nM. On the same count and under the same terms, to `O=C(Cc1ccccc1)Nc1ccn(CCCCc2nnc(NC(=O)Cc3ccccc3)s2)c(=O)c1` belongs < 100 nM.

Regarding `O=C(Cc1ccccc1)Nc1nnc([C@@H]2CCC[C@H](c3nnc(NC(=O)Cc4ccccc4)s3)C2)s1`, the IC50 lay in the range of 1000 to 2000 nM.

Consider `O=C(Cc1ccccc1)Nc1nnc([C@H]2CCC[C@H](c3nnc(NC(=O)Cc4ccccc4)s3)C2)s1` (racemic), for which the IC50 was < 100 nM. On the same count and under the same terms, to `O=C(Cc1ccccc1)Nc1nnc(CCCCn2ccc(NC(=O)Cc3ccccc3)c(F)c2=O)s1` belongs < 100 nM; to `O=C(Cc1ccccc1)Nc1ccn(CCCCn2ccc(NC(=O)Cc3ccccc3)nc2=O)c(=O)n1`, > 500 nM.

In the case of `O=C(Cc1ccccc1)Nc1ccn(CCCCc2nnc(NC(=O)Cc3ccccc3)s2)c(=O)n1`, the IC50 is < 100 nM.

Consider `O=C(Cc1ccccc1)Nc1nnc(CCCCc2cnc3[nH]c(Cc4ccccc4)nc3c2)s1`, for which the IC50 is > 500 nM. Still for that read-out and setting: next, `O=C(Cc1ccccc1)Nc1ccn(CCCCn2cc(C(=O)NCc3cccc(OC(F)(F)F)c3)nn2)c(=O)c1F`: < 100 nM. Same read-out and setting: to `O=C(Cc1ccccc1)Nc1ccn(CCCCc2ccc(NC(=O)Cc3cccc(OC(F)(F)F)c3)nn2)c(=O)c1` belongs < 100 nM; to `O=C(Cc1ccccc1)Nc1nnc(C[C@H]2C[C@@H]2Cc2nnc(NC(=O)Cc3ccccc3)s2)s1` (racemic), 100 to 500 nM. Same read-out and setting: to `O=C(Cc1ccccc1)Nc1nnc(CCCCc2cc3cc(Cc4ccccc4)[nH]c3nn2)s1` belongs < 100 nM; to `O=C(NCc1ccccc1)c1cn(CCCCc2cc3cc(Cc4ccccc4)[nH]c3nn2)nn1`, < 100 nM. Take `O=C(Cc1ccccc1)Nc1nnc([C@@H]2CC[C@H](c3nnc(NC(=O)Cc4ccccc4)s3)C2)s1`: the IC50 lay within 1000 to 2000 nM.

On to `O=C(Cc1ccccc1)Nc1ccn(CCCCn2cc(C(=O)NCc3cccc(OC(F)(F)F)c3)nn2)c(=O)c1`, for which the IC50 is < 100 nM.

For the next assay, the species on record is Bos taurus. Put plainly: Inhibition of bovine GDH.
Take `O=C(O[C@@H]1Cc2c(O)cc(O)cc2O[C@@H]1c1ccc(O)c(O)c1)c1cc(O)c(O)c(O)c1`: the ED50 came to 300 nM. The same measure, in the same setting: next, `O=C(O[C@@H]1Cc2c(O)cc(O)cc2O[C@@H]1c1cc(O)c(O)c(O)c1)c1cc(O)c(O)c(O)c1`: 300 nM.

In another assay the target is T1, Glutaminase kidney isoform, mitochondrial. Put plainly: Inhibition of human GAC after 10 mins by glutamate oxidase coupled Amplex UltraRed dye based assay.
As for `O=C(NCC1CCCCC1)c1cn(CCCCn2cc(C(=O)NCC3CCCCC3)nn2)nn1`, the IC50 is > 500 nM. The same measure, in the same setting: next, `CNC(=O)c1cn(CCCCc2ccc(C(=O)NCc3ccccc3)nn2)nn1`: < 100 nM; `O=C(Cc1ccccc1)Nc1nnc(CCCCn2cc(C(=O)NCc3ccccc3)nn2)s1`: < 100 nM. As for `O=C(NCc1cccc(C(F)(F)F)c1)c1cn(CCCCn2cc(C(=O)NCc3cccc(C(F)(F)F)n3)nn2)nn1`, the IC50 is < 100 nM.

As for `O=C(NCc1ccccc1)c1cn(CCCCn2cc(C(=O)NCc3cccc(C(F)(F)F)n3)nn2)nn1`, the IC50 was in the range of 100 to 500 nM.

A further assay addresses T3, Glutaminase kidney isoform, mitochondrial (Homo sapiens) (UniProt O94925).
T3 sequence (whole entry): T1 sequence (O94925 whole entry)
Put plainly: Inhibition of recombinant GAC (unknown origin) at 0.1 uM after 15 mins in presence of NADPH by glutamate oxidase coupled spectrophotometric analysis relative to control.
As to `O=C(Cc1cccc(OC(F)(F)F)c1)Nc1ncc(CCCCc2nnc(NC(=O)Cc3ccccn3)s2)cn1`, the inhibition is < 25%.

As for `O=C(Cc1cccc(OC(F)(F)F)c1)Nc1ccc(CCCCc2nnc(NC(=O)Cc3ccccn3)s2)nc1`, the inhibition is < 25%. Same read-out and setting: next, `O=C(Cc1cccc(OC(F)(F)F)c1)Nc1cnc(CCCCc2nnc(NC(=O)Cc3ccccn3)s2)cn1`: < 25%; `Cc1nc(NC(=O)Cc2cccc(OC(F)(F)F)c2)ccc1CCCCc1nnc(NC(=O)Cc2ccccn2)s1`: < 25%.

The IC50 is the point on the concentration scale where inhibition reaches its midpoint. As usually defined, the inhibition is the drop in the measured response relative to a control, in per cent.

The values above are taken from ChEMBL document CHEMBL4330073, “Discovery and development of small molecule modulators targeting glutamine metabolism” (Eur J Med Chem, 2019).
